Values of other authors in PubChem BioAssay AID1259409 (Chemical Carcinogenesis Research Information System (CCRIS), 2018).

Test system: rodent chemically induced tumor inhibition, incidence and multiplicity
Assay: CCRIS tumor inhibitor studies

Compound: COc1cc(/C=C/C(=O)CC(=O)/C=C/c2ccc(O)c(OC)c2)ccc1O
- tumour outcome (control, treated, inhibition, significance) (Carcinogen: 7,12-DIMETHYLBENZ[A]ANTHRACENE, 57-97-6, Dose [Inhibitor]: 10 UMOL IN MINERAL OIL APPLIED TO BUCCAL POUCH 3/WK BEGINNING 2 D AFTER LAST CARCINOGEN DOSE (STUDY DURATION: 24 WK), Route [Inhibitor]: MUCOUS MEMBRANE, Species: HAMSTER, Strain/Sex: SYRIAN/MALE, Target Tissue: Type of Lesion: BUCCAL POUCH: PAPILLOMA, Dose [Carcinogen]: 0.5% IN MINERAL OIL APPLIED TO BUCCAL POUCH 3'/WK FOR 6 WK, Promoter: NONE USED): 21/26 (80.7%), 20/26 (76.9%), 4.71%, not significant
- tumour outcome (control, treated, inhibition, significance) (Carcinogen: 7,12-DIMETHYLBENZ[A]ANTHRACENE, 57-97-6, Dose [Inhibitor]: 10 UMOL IN MINERAL OIL APPLIED TO BUCCAL POUCH 3/WK BEGINNING 2 D AFTER LAST CARCINOGEN DOSE (STUDY DURATION: 24 WK), Route [Inhibitor]: MUCOUS MEMBRANE, Species: HAMSTER, Strain/Sex: SYRIAN/MALE, Target Tissue: Type of Lesion: BUCCAL POUCH: SQUAMOUS CELL CARCINOMA, Dose [Carcinogen]: 0.5% IN MINERAL OIL APPLIED TO BUCCAL POUCH 3'/WK FOR 6 WK, Promoter: NONE USED): 20/26 (76.9%), 13/26 (50%), 35%, p< 0.05
- tumour outcome (control, treated, inhibition, significance) (Carcinogen: 7,12-DIMETHYLBENZ[A]ANTHRACENE, 57-97-6, Dose [Inhibitor]: 10 UMOL IN MINERAL OIL APPLIED TO BUCCAL POUCH 3/WK BEGINNING 2 D AFTER LAST CARCINOGEN DOSE (STUDY DURATION: 24 WK), Route [Inhibitor]: MUCOUS MEMBRANE, Species: HAMSTER, Strain/Sex: SYRIAN/MALE, Target Tissue: Type of Lesion: BUCCAL POUCH: TUMOR, Dose [Carcinogen]: 0.5% IN MINERAL OIL APPLIED TO BUCCAL POUCH 3'/WK FOR 6 WK, Promoter: NONE USED): 24/26 (92.3%), 20/26 (76.9%), 16.7%, not significant
- tumour outcome (control, treated, inhibition, significance) (Carcinogen: 7,12-Dimethylbenzanthracene, 57-97-6, Dose [Inhibitor]: 1% as turmeric (equivalent to 0.05% curcumin) in diet, starting 15 d before carcinogen application to 12 wks after carci, Route [Inhibitor]: Diet, Species: Hamster, Strain/Sex: Syrian golden/Male, Target Tissue: Type of Lesion: Buccal (oral) tissues: Tumor, Dose [Carcinogen]: 0.5% in 0.1 ml oil 3 x wk for 12 wk, study duration 12 wk, Promoter: None): 100%, 55%, 45% at 12 wks (from table)
- tumour outcome (control, treated, inhibition, significance) (Carcinogen: AZOXYMETHANE, 25843-45-2, Dose [Inhibitor]: 0, 0.5% COMMERCIAL GRADE CURCUMIN IN DIET FOR 35 WK BEGINNING 2 WK PRIOR TO CARCINOGEN TREATMENT (STUDY DURATION: 35 WK), Route [Inhibitor]: ORAL, Species: MOUSE, Strain/Sex: CF-1/FEMALE, Target Tissue: Type of Lesion: COLON: ADENOCARCINOMA, Dose [Carcinogen]: 10 MG/KG BW IN 100 µL NORMAL SALINE 1/WK FOR 6 WK, Promoter: NONE USED): 40%, 22%, 45%, not significant
- tumour outcome (control, treated, inhibition, significance) (Carcinogen: AZOXYMETHANE, 25843-45-2, Dose [Inhibitor]: 0, 0.5% COMMERCIAL GRADE CURCUMIN IN DIET FOR 35 WK BEGINNING 2 WK PRIOR TO CARCINOGEN TREATMENT (STUDY DURATION: 35 WK), Route [Inhibitor]: ORAL, Species: MOUSE, Strain/Sex: CF-1/FEMALE, Target Tissue: Type of Lesion: COLON: ADENOMA, Dose [Carcinogen]: 10 MG/KG BW IN 100 µL NORMAL SALINE 1/WK FOR 6 WK, Promoter: NONE USED): 93%, 69%, 26%, not significant
- tumour outcome (control, treated, inhibition, significance) (Carcinogen: AZOXYMETHANE, 25843-45-2, Dose [Inhibitor]: 0, 2% COMMERCIAL GRADE CURCUMIN IN DIET FOR 9 WK BEGINNING 2 WK PRIOR TO CARCINOGEN TREATMENT (STUDY DURATION: 35 WK), Route [Inhibitor]: ORAL, Species: MOUSE, Strain/Sex: CF-1/FEMALE, Target Tissue: Type of Lesion: COLON: ADENOCARCINOMA, Dose [Carcinogen]: 10 MG/KG BW IN 100 µL NORMAL SALINE 1/WK FOR 6 WK, Promoter: NONE USED): 40%, 9%, 78%, not significant
- tumour outcome (control, treated, inhibition, significance) (Carcinogen: AZOXYMETHANE, 25843-45-2, Dose [Inhibitor]: 0, 2% COMMERCIAL GRADE CURCUMIN IN DIET FOR 9 WK BEGINNING 2 WK PRIOR TO CARCINOGEN TREATMENT (STUDY DURATION: 35 WK), Route [Inhibitor]: ORAL, Species: MOUSE, Strain/Sex: CF-1/FEMALE, Target Tissue: Type of Lesion: COLON: ADENOMA, Dose [Carcinogen]: 10 MG/KG BW IN 100 µL NORMAL SALINE 1/WK FOR 6 WK, Promoter: NONE USED): 93%, 61%, 34%, not significant
- tumour outcome (control, treated, inhibition, significance) (Carcinogen: AZOXYMETHANE, 25843-45-2, Dose [Inhibitor]: 0, 2% COMMERCIAL GRADE CURCUMIN IN DIET FOR 26 WK BEGINNING 1 WK POST CARCINOGEN TREATMENT (STUDY DURATION: 35 WK), Route [Inhibitor]: ORAL, Species: MOUSE, Strain/Sex: CF-1/FEMALE, Target Tissue: Type of Lesion: COLON: ADENOCARCINOMA, Dose [Carcinogen]: 10 MG/KG BW IN 100 µL NORMAL SALINE 1/WK FOR 6 WK, Promoter: NONE USED): 40%, 24%, 40%, not significant
- tumour outcome (control, treated, inhibition, significance) (Carcinogen: AZOXYMETHANE, 25843-45-2, Dose [Inhibitor]: 0, 2% COMMERCIAL GRADE CURCUMIN IN DIET FOR 26 WK BEGINNING 1 WK POST CARCINOGEN TREATMENT (STUDY DURATION: 35 WK), Route [Inhibitor]: ORAL, Species: MOUSE, Strain/Sex: CF-1/FEMALE, Target Tissue: Type of Lesion: COLON: ADENOMA, Dose [Carcinogen]: 10 MG/KG BW IN 100 µL NORMAL SALINE 1/WK FOR 6 WK, Promoter: NONE USED): 93%, 85%, 9%, not significant
- tumour outcome (control, treated, inhibition, significance) (Carcinogen: AZOXYMETHANE, 25843-45-2, Dose [Inhibitor]: 0, 2% COMMERCIAL GRADE CURCUMIN IN DIET FOR 35 WK BEGINNING 2 WK PRIOR TO CARCINOGEN TREATMENT (STUDY DURATION: 35 WK), Route [Inhibitor]: ORAL, Species: MOUSE, Strain/Sex: CF-1/FEMALE, Target Tissue: Type of Lesion: COLON: ADENOCARCINOMA, Dose [Carcinogen]: 10 MG/KG BW IN 100 µL NORMAL SALINE 1/WK FOR 6 WK, Promoter: NONE USED): 40%, 0%, 100%, not significant
- tumour outcome (control, treated, inhibition, significance) (Carcinogen: AZOXYMETHANE, 25843-45-2, Dose [Inhibitor]: 0, 2% COMMERCIAL GRADE CURCUMIN IN DIET FOR 35 WK BEGINNING 2 WK PRIOR TO CARCINOGEN TREATMENT (STUDY DURATION: 35 WK), Route [Inhibitor]: ORAL, Species: MOUSE, Strain/Sex: CF-1/FEMALE, Target Tissue: Type of Lesion: COLON: ADENOMA, Dose [Carcinogen]: 10 MG/KG BW IN 100 µL NORMAL SALINE 1/WK FOR 6 WK, Promoter: NONE USED): 93%, 68%, 27%, not significant
- tumour outcome (control, treated, inhibition, significance) (Carcinogen: AZOXYMETHANE, 25843-45-2, Dose [Inhibitor]: 0, 2% PURE CURCUMIN IN DIET FOR 35 WK BEGINNING 2 WK PRIOR TO CARCINOGEN TREATMENT (STUDY DURATION: 35 WK), Route [Inhibitor]: ORAL, Species: MOUSE, Strain/Sex: CF-1/FEMALE, Target Tissue: Type of Lesion: COLON: ADENOCARCINOMA, Dose [Carcinogen]: 10 MG/KG BW IN 100 µL NORMAL SALINE 1/WK FOR 6 WK, Promoter: NONE USED): 40%, 14%, 65%, not significant
- tumour outcome (control, treated, inhibition, significance) (Carcinogen: AZOXYMETHANE, 25843-45-2, Dose [Inhibitor]: 0, 2% PURE CURCUMIN IN DIET FOR 35 WK BEGINNING 2 WK PRIOR TO CARCINOGEN TREATMENT (STUDY DURATION: 35 WK), Route [Inhibitor]: ORAL, Species: MOUSE, Strain/Sex: CF-1/FEMALE, Target Tissue: Type of Lesion: COLON: ADENOMA, Dose [Carcinogen]: 10 MG/KG BW IN 100 µL NORMAL SALINE 1/WK FOR 6 WK, Promoter: NONE USED): 93%, 62%, 33%, not significant
